Data on 18 molecules can be found in patent US12690591B2, “Fungicidal composition containing oxadiazole compounds” (PI INDUSTRIES LIMITED, priority 2021, dated 2026).

The subject of experiment [1] is Pyricularia oryzae. Briefly: whole plant or invertebrate. It counts as in vivo. The settings on record: for Observed Efficacy (%): preventive spray on rice plants.
The subject of experiment [2] is Corynespora cassiicola. The experiment can be described thus: Corynespora cassiicola test (tomato), preventive glasshouse spray test. In kind it is in vivo. Conditions: single compound.
Experiment [3] deals with Alternaria solani. Briefly: Alternaria solani test (tomato plants), preventive glasshouse spray test. Conditions: for pest or weed control at 1 ppm / pest or weed control at 5 ppm / pest or weed control at 10 ppm: Alternaria solani, in Solanum lycopersicum, read-out: Observed Efficacy (%).
Experiment [4] relates to Botrytis cinerea. Briefly: Botrytis cinerea test (tomato), preventive glasshouse spray test. It counts as in vivo.
For experiment [5], the system named is Pseudoperonospora cubensis. Briefly: Pseudoperonospora cubensis test (cucumber), preventive glasshouse spray test. In kind it is in vivo. An excerpt:
The test solutions were poured into the spray bottles for further applications.

For experiment [6], the system named is Phakopsora pachyrhizi. The experiment can be described thus: Phakopsora pachyrhizi test (soybean), preventive glasshouse spray test. It counts as in vivo. Conditions: for pest or weed control at 0.0001 ppm / pest or weed control at 0.001 ppm / pest or weed control at 0.01 ppm / pest or weed control at 0.05 ppm / pest or weed control at 0.1 ppm: Phakopsora pachyrhizi, read-out: Observed Efficacy (%).

Experiment [7] has as its system Erysiphe cichoracearum. Briefly: Erysiphe cichoracearum test (cucumber), preventive glasshouse spray test. Conditions: preventive spray on cucumber plants.
Experiment [8] has as its system Phytopthora infestans. In kind it is in vivo. Conditions: single compound, tomato, preventive spray.
Experiment [9] concerns Septoria nodorum. Briefly: Parastagonospora nodorum/Septoria nodorum/Stagnospora nodorum test (wheat), preventive glasshouse spray test. In kind it is in vivo. Conditions: preventive spray on wheat plants.
The mark [10] stands for this setting: Pyricularia oryzae, read-out: Observed Efficacy (%).
Where [11] appears, read: Table G1, single compound, 0.1 ppm.
[12] abbreviates: Table D1, single compound, 0.05 ppm, soybean, preventive spray.
[13] abbreviates: Table G1, single compound, 0.05 ppm.
[14] abbreviates: single compound, Conc. 0.05 ppm.
Setting [15] is: Table D3, single compound, 0.05 ppm, soybean, preventive spray.
[16] abbreviates: Table D3, single compound, 0.1 ppm, soybean, preventive spray.

Where two headings read alike, the source gives them in different places.

For the molecule `CO/C=C(/C(=O)OC)c1ccccc1Oc1cc(Oc2ccccc2C#N)ncn1` [Azoxystrobin, azoxystrobin, reference compound], the “Observed Efficacy (%)” value in experiment [1] (single compound at 0.1 ppm) is listed as 26%.
On to metiram [reference compound], for which, in experiment [1] (single compound at 0.1 ppm), the “Observed Efficacy (%)” value is recorded as 18%.
Consider `Cn1cc(C(=O)Nc2cccc3c2[C@@H]2CC[C@H]3C2=C(Cl)Cl)c(C(F)F)n1` (racemic) [Benzovindiflupyr, benzovindiflupyr], for which, in experiment [2] (Conc. 0.05 ppm), the “Observed Efficacy (%)” value turned out to be 18%.
In the case of `O=C(COc1ccc(F)nc1)c1ccc(-c2noc(C(F)(F)F)n2)cc1` [Compound (I-3), 2-((6-fluoropyridin-3-yl)oxy)-1-(4-(5-(trifluoromethyl)-1,2,4-oxadiazol-3-yl)phenyl)ethan-1-one], the “Observed Efficacy (%)” value in experiment [2] (Conc. 5 ppm) is listed as 36%; in [2] (Conc. 10 ppm), 45%; in [4] (single compound at 10 ppm, preventive spray on tomato plants), 20%; in experiment [5] (setting [11]), 36%; in experiment [5] (Table G1, single compound, 1 ppm) it was 32%; in [5] (Table G1, single compound, 10 ppm), 34%. Besides, the “Observed Efficacy (%)” value in experiment [7] (single compound at 1 ppm) is given as 35%; in [7] (single compound at 5 ppm), 37%; in experiment [7] (single compound at 10 ppm), 39%. The pest or weed control at 10 ppm in experiment [1] (setting [10]) is 42%; in experiment [3], 47%. Also, in experiment [3], the pest or weed control at 1 ppm stood at 35%. In experiment [3], the pest or weed control at 5 ppm was determined as 40%. Further, in experiment [6] (single compound at 0.0001 ppm, preventive spray on soybean plants), the pest or weed control at 0.0001 ppm was 43%. The pest or weed control at 0.001 ppm in experiment [6] (single compound at 0.001 ppm, preventive spray on soybean plants) worked out at 50%.
In the case of `O=C(CNc1ccc(F)cc1)c1ccc(-c2noc(C(F)(F)F)n2)cc1` [Compound (I-8), 2-((4-fluorophenyl)amino)-1-(4-(5-(trifluoromethyl)-1,2,4-oxadiazol-3-yl)phenyl)ethan-1-one], the figures for the pest or weed control at 1 ppm in [1] (setting [10]) and in experiment [3] were 17% and 26%, respectively. The results for the pest or weed control at 5 ppm in experiment [1] (setting [10]) and in experiment [3] were 22% and 37%, respectively. The values for the pest or weed control at 10 ppm in [1] (setting [10]) and in experiment [3] were 31% and 47%, respectively. Further, the “Observed Efficacy (%)” value in [8] (Conc. 1 ppm) is given as 32%; in [8] (Conc. 5 ppm), 42%; in experiment [5] (single compound, Conc. 1 ppm), 17%; in experiment [5] (single compound, Conc. 5 ppm), 19%; in experiment [5] (single compound, Conc. 10 ppm), 28%; in experiment [7] (single compound at 1 ppm), 19%. The “Observed Efficacy (%)” value in experiment [7] (single compound at 5 ppm) is given as 25%; in [7] (single compound at 10 ppm), 31%. Moreover, the pest or weed control at 0.0001 ppm in experiment [6] (Table D3, single compound, 0.0001 ppm, soybean, preventive spray) turned out to be 37%. Besides, the pest or weed control at 0.001 ppm in experiment [6] (Table D3, single compound, 0.001 ppm, soybean, preventive spray) was determined as 47%. In addition, in [6] (Table D3, single compound, soybean, preventive spray), the pest or weed control at 0.01 ppm worked out at 60%.
Regarding `CC1CC(C)(C)c2c(F)ccc(NC(=O)c3cn(C)nc3C(F)F)c21` (centres unmarked) [Inpyrfluxam, inpyrfluxam], the “Observed Efficacy (%)” value in experiment [2] (Conc. 0.05 ppm) turned out to be 16%; in experiment [3] (single compound at 0.1 ppm, preventive spray on tomato plants) it was 23%; in experiment [9] (single compound at 0.05 ppm) it was 12%; in [6] (setting [12]), 18%.
With `O=C(NCCc1ncc(C(F)(F)F)cc1Cl)c1ccccc1C(F)(F)F` [Fluopyram, fluopyram], the “Observed Efficacy (%)” value worked out at 2% in experiment [5] (setting [13]); 12% in experiment [5] (setting [11]); 2% in [5] (setting [14]); 12% in experiment [5] (single compound, Conc. 0.1 ppm); 8% in experiment [9] (single compound at 0.05 ppm); 21% in [9] (single compound at 0.1 ppm).
For `COC(=O)N(OC)c1ccccc1COc1ccn(-c2ccc(Cl)cc2)n1` [Pyraclostrobin, pyraclostrobin], the pest or weed control at 0.05 ppm in experiment [6] (setting [15]) turned out to be 37%. Further, in [6] (setting [16]), the pest or weed control at 0.1 ppm came to 46%.
Consider `OC(Cc1ccccc1Cl)(Cn1nc[nH]c1=S)C1(Cl)CC1` (centres unmarked) [Prothioconazole, prothioconazole], for which the “Observed Efficacy (%)” value in [5] (single compound, Conc. 0.1 ppm) amounted to 45%; in experiment [6] (setting [16]), 48%. For the same molecule, the pest or weed control at 0.1 ppm in experiment [6] (Table D1, single compound, 0.1 ppm, soybean, preventive spray) was 48%.
Regarding mancozeb, the “Observed Efficacy (%)” value in [2] (Conc. 0.05 ppm) was determined as 10%; in experiment [5] (setting [13]), 2%; in [5] (setting [11]), 5%; in experiment [5] (setting [14]), 2%; in [5] (single compound, Conc. 0.1 ppm) it was 5%.
For `CC(O)(Cn1cncn1)c1ccc(Oc2ccc(Cl)cc2)cc1C(F)(F)F` (centres unmarked) [Mefentrifluconazole, mefentrifluconazole], the figures for the “Observed Efficacy (%)” value in experiment [6] (setting [15]) and in experiment [6] (setting [16]) were 32% and 44%, respectively.
For `N#Cc1sc2c(=O)c3ccccc3c(=O)c=2sc1C#N` [Dithianon, dithianon], the “Observed Efficacy (%)” value in [9] (single compound at 0.1 ppm) is 16%.
`O=C(COc1ccc(F)cc1)c1ccc(-c2noc(C(F)(F)F)n2)cc1` [Compound (I-2), 2-(4-fluorophenoxy)-1-(4-(5-(trifluoromethyl)-1,2,4-oxadiazol-3-yl)phenyl)ethan-1-one]: the pest or weed control at 1 ppm in experiment [1] (setting [10]) was found to be 17%; in [3] it was 34%. Also, the pest or weed control at 10 ppm in [1] (setting [10]) stood at 37%; in experiment [3], 47%. The pest or weed control at 5 ppm in experiment [3] is 42%. Also, the “Observed Efficacy (%)” value is 20% in experiment [4] (Table F1, single compound, 1 ppm, tomato, preventive spray); 27% in experiment [4] (Table F1, single compound, 5 ppm, tomato, preventive spray); 47% in experiment [4] (Table F1, single compound, 10 ppm, tomato, preventive spray); 17% in experiment [9] (single compound at 1 ppm); 20% in experiment [9] (single compound at 5 ppm); 43% in experiment [9] (single compound at 10 ppm). Further, the “Observed Efficacy (%)” value in experiment [7] (single compound at 1 ppm) was 13%. For the same molecule, the pest or weed control at 0.0001 ppm in [6] (Table D1, single compound, 0.0001 ppm, soybean, preventive spray) came out at 40%. The pest or weed control at 0.001 ppm in [6] (Table D1, single compound, 0.001 ppm, soybean, preventive spray) was determined as 50%. In addition, the pest or weed control at 0.01 ppm in experiment [6] (Table D1, single compound, soybean, preventive spray) came out at 62%.
As for `O=[N+]([O-])c1cc(C(F)(F)F)c(Cl)c([N+](=O)[O-])c1Nc1ncc(C(F)(F)F)cc1Cl` [Fluazinam, fluazinam], the “Observed Efficacy (%)” value in experiment [2] (Conc. 0.1 ppm) was 12%; in experiment [9] (single compound at 0.1 ppm), 21%.
Turning to `CC1CC(C)(C)c2c(F)ccc(NC(=O)c3cn(C)nc3C(F)F)c21` (centres unmarked) [Fluindapyr, fluindapyr, reference compound], the “Observed Efficacy (%)” value in experiment [1] (single compound at 0.05 ppm) amounted to 11%; in experiment [5] (setting [13]), 35%.
Turning to `O=C1c2ccccc2C(=O)N1SC(Cl)(Cl)Cl` [Folpet, folpet, reference compound], the “Observed Efficacy (%)” value in experiment [8] (Conc. 0.1 ppm) worked out at 11%; in experiment [4] (Table F1, single compound, 0.1 ppm, tomato, preventive spray), 38%.
On to `O=C(Nc1ccccc1-c1ccc(Cl)cc1)c1cccnc1Cl` [Boscalid, boscalid, reference compound], for which the “Observed Efficacy (%)” value in experiment [8] (Conc. 0.1 ppm) is listed as 11%. Besides, the pest or weed control at 0.05 ppm in [6] (setting [12]) is 27%.
In the case of `CNC(=O)/C(=N/OC)c1ccccc1Oc1ccccc1` [Metominostrobin, metominostrobin], the entries for the “Observed Efficacy (%)” value in [9] (single compound at 0.05 ppm) and in [9] (single compound at 0.1 ppm) were 6% and 12%, respectively.
